The text below walks through data of patent publication US20090054376A1, “BENZOFURAN DERIVATIVES WITH THERAPEUTIC ACTIVITIES” (Pharmos Corporation, priority 2005, published 2009).

In assay [1] the test system is visceral pain writhing responses. The assay is described as follows: Visceral pain, acetic acid induced writhing responses. Type of assay: in vivo, Male ICR mice. The note with it: for inhibition in vivo at 2 mg/kg: Mus musculus, iv, read-out: Percent Inhibition of Visceral Pain Writhing Responses; for inhibition in vivo at 2 mg/kg / Percent Inhibition of Visceral Pain Writhing Responses: single dose 2 mg/kg i.v., compared to untreated group. For orientation: In writhing tests, fewer writhes than in controls are read as antinociception.

In assay [2] the test system is CFA induced rheumatoid arthritis. The assay is described as follows: CFA induced rheumatoid arthritis. The format is in vivo, Female Lewis rats. As to the method:
Female Lewis rats (125 g average body weight, Harlan, Israel), at least eight per treatment group were used in this study. CFA was prepared by combining 100 mg of Mycobacterium Tuberculosis (Difco) with 5 ml of incomplete Freund's adjuvant and grinding for about 3 minutes the resulting mixture until a brownish suspension was obtained. The CFA suspension was administered s.c. at the base of the tail, 0.2 ml/animal. Three tests were performed to evaluate the pain and inflammation caused by the disease. These tests were performed before CFA injection to establish baseline values and 14, 21 and 28 days after disease induction. Compounds of the invention were administered daily for fourteen days p.o. at a dose of 10 mg/kg starting on day 14, after disease onset. A group of animals treated with vehicle only at 5 ml/kg served as control.
The parameters monitored were as detailed in Example 18 and include paw edema and redness, and response to thermal and mechanical pain stimuli. At the end of the treatment period the animals were euthanized. The paws were cut and stored in a solution of 4% formalin until histopathological evaluation.
The differences among various treatment groups between the severity of the clinical signs, as expressed by paw swelling and redness, as well as the differences in pain responses, as expressed by Latency Time (sec) and Force (g) needed to observe withdrawal of the paw following thermal and mechanical stimuli, and finally the tissue damage, as expressed by the histological scores, were compared using analysis of variance ANOVA followed by post-hoc t-Test. A value of p<0.05 is considered to be statistically significant.

Assay [3] has as its system oxazolone induced DTH, ear thickness. The assay is described as follows: Oxazolone induced delayed type hypersensitivity. Type of assay: in vivo, Male ICR mice. The note with it: for decrease in ΔThickness, inhibition as compared to untreated animals: day one after challenge. As to the method:
Male ICR mice (average body weight 20-25 g, Harlan, Israel) were anesthetized using a mixture of 35 mg/kg ketamine and 8 mg/kg xylazine. The abdomen of the sedated animals was shaved, and the animals were sensitized by topical application of 2% oxazolone in acetone:sesame oil (4:1 volume per volume), 100 μl to the shaved abdomen and 5 μl to each paw. Five days later, the sensitized mice were anesthetized again and their right ear was challenged with 10 μl of 1% oxazolone. Immediately before this challenge, vehicle (5 ml/kg) or test compounds were administered i.v. Each treatment group comprised at least 5 animals. The ear thickness was measured 24 and 48 hours following challenge using a micrometer. The difference in ear thickness (ΔThickness) between the challenged and non-challenged ear was calculated. The average ΔThickness and SEM were calculated on each day following challenge (baseline) for all treatment groups.

For assay [4], the system named is IL-1β. The assay is described as follows: Cytokine secretion into blood circulation in LPS injected mice, IL-1β. Type of assay: in vivo, Balb/C female mice. The note with it: 2 mg/kg i.v., LPS 3 mg/kg i.p., plasma 90 minutes after LPS. As to the method: (§1) Balb/C female mice (average body weight 20 g, Harlan, Israel) were injected i.v. at a volume dosage of 5 ml/kg with either vehicle or test compounds at a dose of 2 mg/kg. Each treatment group comprised at least 9 animals. Immediately after compound or control administration, the mice were injected i.p. with 3 mg/kg LPS (E. coli 055:B5, Calbiochem). Ninety minutes after LPS induction, blood samples were collected into heparanized test tubes. Plasma was separated by centrifugation (10,000 rpm for 5 minutes at RT) and stored at −20° C. until assayed. The level of the inflammatory mediator under study, IL-1β, IL-6, IL-10 or TNF-α, was assayed by ELISA techniques.
(§2) The technique used to quantify the amount of a given protein in a liquid sample, either tissue culture supernatant or body fluid, is based on Enzyme Linked ImmunoSorbent Assay (ELISA) methodology. Either commercially available or established in house, the assay is based on the capture of the protein of interest by specific antibodies bound to the bottom of an ELISA plate well. Unbound material is washed away, the captured protein is then exposed to a secondary antibody generally labeled with horseradish peroxidase (HRP) or alkaline phosphatase (ALP). Again the unbound material is washed away, and the samples are then incubated with the appropriate substrate yielding a colorimetric reaction. The reaction is stopped and reading is performed in a spectrophotometer at the appropriate wavelength. Samples are tested at least in duplicate and the appropriate standard curve, consisting of serial dilutions of the recombinant target protein, is incorporated on each plate. The concentration of the protein in the sample is calculated from the standard curve.
(§3) The results are expressed as percent inhibition of secretion, taking into account the maximal cytokine concentration in vehicle “treated” animals and the baseline level in naïve animals. […] Inhibition above 50% was considered highly significant.

Assay [5] relates to IL-6. The assay is described as follows: Cytokine secretion into blood circulation in LPS injected mice, IL-6. Type of assay: in vivo, Balb/C female mice. The note with it: 2 mg/kg i.v., LPS 3 mg/kg i.p., plasma 90 minutes after LPS. As to the method: as §1, §2, §3
Assay [6] has as its system IL-10. The assay is described as follows: Cytokine secretion into blood circulation in LPS injected mice, IL-10. The format is in vivo, Balb/C female mice. As to conditions: 2 mg/kg i.v., LPS 3 mg/kg i.p., plasma 90 minutes after LPS. As to the method: as §1, §2, §3
The subject of assay [7] is TNF-α. The assay is described as follows: Cytokine secretion into blood circulation in LPS injected mice, TNF-α. The format is in vivo, Balb/C female mice. The note with it: 2 mg/kg i.v., LPS 3 mg/kg i.p., plasma 90 minutes after LPS. As to the method:
as §1, §2, §3

On to `CCCCCCC(C)(C)c1cc(O)c2c(c1)OC1C(O)CCCCC21` (stereo not drawn) [Compound C7S-2, 2-(1,1-dimethylheptyl)-5,6,7,8,9,9a-hexahydro-4bH-10-oxa-benzo[α]azulen-4,9-diol], for which the “inhibition of writhing responses” value in assay [1] (0.075 mg/kg i.v., compared to vehicle) is 28%; in assay [1] (0.1 mg/kg i.v.) it was 74%; in assay [1] (0.25 mg/kg i.m.), 35%; in assay [1] (0.5 mg/kg i.m.) it was 90%; in assay [1] (10 mg/kg p.o.) it was 58%; in assay [1] (20 mg/kg p.o.), 83%. Besides, the “inhibition of pain responses” value in assay [1] (0.5 mg/kg i.v.) was “totally eradicated pain responses”. Moreover, in assay [1] (1 mg/kg i.m.), the “inhibition of pain response” value is on record as “totally abrogated the pain response”. Moreover, the “fold more potent than morphine” value in assay [1] (IC50 in visceral pain, i.v.) is reported as 12 fold. In addition, the inhibition in vivo at 2 mg/kg in assay [1] is > 90%. Also, the “IC50 in visceral pain” value in assay [1] (i.m. administration, calculated) is listed as “about 0.27 mg/kg”; in assay [1] (i.v., estimated or calculated from dose range), 0.09 mg/kg; in assay [1] (p.o. administration, calculated), “about 6.6 mg/kg”; in assay [1] (subcutaneously, estimated) it was “about 1 mg/kg”. For the same compound, the “decrease in clinical score as compared to first day of treatment” value in assay [2] (after two weeks of treatment, 10 mg/kg p.o.) was 44%. Moreover, the “average clinical score regarding the edema” value turned out to be 3.29±0.97 in assay [2] (after two weeks of treatment, 10 mg/kg p.o. daily, vehicle 6.67±1.85) and 5.86±1.70 in assay [2] (day 14, at initiation of treatment, 10 mg/kg p.o. group, vehicle 6.00±1.18). In addition, the “difference in average clinical score in favor of treated animals” value in assay [2] (day 21, after a week of treatment, 10 mg/kg p.o. daily, vs vehicle) was 1.89 unit. The “Force increase over baseline” value in assay [2] (day 28, 10 mg/kg p.o.) is recorded as “about 63%”. Further, the “Latency increase over baseline values of day 14” value in assay [2] (day 28, 10 mg/kg p.o.) is given as “more than 32%”. Also, the “Latency prolonged following thermal stimulus” value in assay [2] (day 28 vs day 14, 10 mg/kg p.o.) is “about 5 seconds”. Further, the “increase of Force needed to elicit a withdrawal response” value in assay [2] (day 28 vs day 14, 10 mg/kg p.o., mechanical stimulus) is on record as 11.1 grams. The “Difference in Ear Thickness, Baseline, Mean” value in assay [3] (0.5 mg/kg IV) is 3.66 ×10^−2 mm. For the same compound, the “Difference in Ear Thickness, Day 1, Mean” value in assay [3] (0.5 mg/kg IV) is 8.18 ×10^−2 mm. Also, in assay [3] (0.5 mg/kg IV), the “Difference in Ear Thickness, Day 2, Mean” value is 5.90 ×10^−2 mm. In addition, the “decrease in ΔThickness, inhibition as compared to untreated animals” value in assay [3] (0.5 mg/kg i.v.) worked out at 29%.

Consider `CCCCC(C)(C)c1cc(O)c2c(c1)OC1(C)CCCC21` (stereo not drawn) [Compound C5S-1, 6-(1,1-dimethylpentyl)-8a-methyl-2,3,3a,8a-tetrahydro-1H-8-oxa-cyclopenta[α]inden-4-ol], for which the “Inhibition of cytokine secretion into blood circulation, IL-1β” value (from here on “Inhibition … IL-1β”) in assay [4] worked out at 41%. Also, the “Inhibition of cytokine secretion into blood circulation, IL-6” value (from here on “Inhibition … IL-6”) in assay [5] is on record as 28%. Moreover, the “Inhibition of cytokine secretion into blood circulation, IL-10” value (“Inhibition … IL-10” for short) in assay [6] is given as 75%. Also, the “Inhibition of cytokine secretion into blood circulation, TNF-α” value (from here on “Inhibition … TNF-α”) in assay [7] was 77%. Besides, the “Percent Inhibition of Visceral Pain Writhing Responses” value in assay [1] was 41%.

Take `CCCCC(C)(C)c1cc(O)c2c(c1)OC1C2CCC(C)(C)C1O` (centres unmarked) [Compound C6S-7, 3-(1,1-dimethylpentyl)-7,7-dimethyl-5a,6,7,8,9,9a-hexahydro-dibenzofuran-1,6-diol]: in assay [1], the inhibition in vivo at 2 mg/kg came out at 40%.

`CCCCC(C)(C)c1cc(O)c2c(c1)OC1CCCCC21` (centres unmarked) [Compound C6S-3, 3-(1,1-dimethylpentyl)-5a,6,7,8,9,9a-hexahydro-dibenzofuran-1-ol]: in assay [4], the “Inhibition … IL-1β” value is “NO (NO indicates that the compound tested did not significantly affect the level of cytokine in plasma of LPS injected mice and that its activity is comparable to vehicle, within ±20% from this control)”. Moreover, the “Inhibition … IL-6” value in assay [5] was “NO (NO indicates that the compound tested did not significantly affect the level of cytokine in plasma of LPS injected mice and that its activity is comparable to vehicle, within ±20% from this control)”. Besides, the “Inhibition … IL-10” value in assay [6] amounted to 79%. In assay [7], the “Inhibition … TNF-α” value stood at 78%. For the same compound, in assay [3] (2 mg/kg IV), the “Difference in Ear Thickness, Baseline, Mean” value was 3.76 ×10^−2 mm; the “Difference in Ear Thickness, Day 1, Mean” value was 8.64 ×10^−2 mm; the “Difference in Ear Thickness, Day 2, Mean” value is recorded as 5.78 ×10^−2 mm. In addition, in assay [3] (2 mg/kg i.v.), the “decrease in ΔThickness, inhibition as compared to untreated animals” value worked out at 25%.

As for `CCCCCCC(C)(C)c1cc(O)c2c(c1)OC1(C)CCCC21` (stereo not drawn) [Compound C5S-2, 6-(1,1-dimethylheptyl)-8a-methyl-2,3,3a,8a-tetrahydro-1H-8-oxa-cyclo-penta[α]inden-4-ol], the “Inhibition … IL-1β” value in assay [4] was found to be 53%. The “Inhibition … IL-6” value in assay [5] is “NO (NO indicates that the compound tested did not significantly affect the level of cytokine in plasma of LPS injected mice and that its activity is comparable to vehicle, within ±20% from this control)”. In assay [6], the “Inhibition … IL-10” value turned out to be 64%. Besides, the “Inhibition … TNF-α” value in assay [7] was 38%. Besides, the “Percent Inhibition of Visceral Pain Writhing Responses” value in assay [1] came out at 72%.

Regarding `CCCCCCC(C)(C)c1cc(O)c2c(c1)OC1C=CCCC21` (centres unmarked) [Compound C6S-2, 3-(1,1-Dimethylheptyl)-5a,8,9,9a-tetrahydro-dibenzofuran-1-ol], the “Inhibition … IL-1β” value in assay [4] worked out at 56%. The “Inhibition … IL-6” value in assay [5] was “NO (NO indicates that the compound tested did not significantly affect the level of cytokine in plasma of LPS injected mice and that its activity is comparable to vehicle, within ±20% from this control)”. Moreover, in assay [6], the “Inhibition … IL-10” value is listed as 68%. The “Inhibition … TNF-α” value in assay [7] is “NO (NO indicates that the compound tested did not significantly affect the level of cytokine in plasma of LPS injected mice and that its activity is comparable to vehicle, within ±20% from this control)”.

`CCCCCCC(C)(C)c1cc(O)c2c3c(oc2c1)C(=O)CCC3(C)C` [Compound C6M-9, 7-(1,1-Dimethylheptyl)-9-hydroxy-1,1-dimethyl-2,3-dihydro-1H-dibenzofuran-4-one]: the inhibition in vivo at 2 mg/kg in assay [1] came to 38%.
